Laboratory results published in US11008346B2, “Beta-lactamase inhibitors” (priority 2014, dated 2021).
Read-outs that look alike come from different tables or passages of the source.

Key:
[1] = tested on: E. coli ESBL4 expressing CTX-M-15; assay: broth microdilution MIC, E. coli CTX-M-15; type: cell-based; settings: Fixed CAZ (ceftazidime) 4 μg/mL
Summary of the method: (§1)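 Following CLSI broth microdilution, plates were read by eye for MIC after 16–20 h incubation at 37 °C. Each well held a fixed 4 μg/mL β-lactam overlay plus test compound serially halved from 32 to 0.25 μg/mL in CAMHB. Inocula came from 3–5 h broth cultures.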

[2] = tested on: K. pneumoniae A-1797 expressing KPC-2 and VIM-4; assay: broth microdilution MIC, K. pneumoniae KPC-2 and VIM-4; type: cell-based; settings: Fixed Mero (meropenem) 4 μg/mL
Summary of the method: as §1

[3] = tested on: E. cloacae 144200 expressing Class C P99 AmpC; assay: broth microdilution MIC, E. cloacae P99; type: cell-based; settings: Fixed CAZ (ceftazidime) 4 μg/mL
Summary of the method: as §1

KPC-2 β-lactamase = molecular target: T1, KPC-2 β-lactamase (Klebsiella pneumoniae, UniProt Q9F663); assay: β-lactamase enzyme inhibition, KPC-2; type: biochemical
T1 construct: made in house; host or cells: E. coli BL21(DE3)
T1 sequence (Q9F663 25-293, looked up): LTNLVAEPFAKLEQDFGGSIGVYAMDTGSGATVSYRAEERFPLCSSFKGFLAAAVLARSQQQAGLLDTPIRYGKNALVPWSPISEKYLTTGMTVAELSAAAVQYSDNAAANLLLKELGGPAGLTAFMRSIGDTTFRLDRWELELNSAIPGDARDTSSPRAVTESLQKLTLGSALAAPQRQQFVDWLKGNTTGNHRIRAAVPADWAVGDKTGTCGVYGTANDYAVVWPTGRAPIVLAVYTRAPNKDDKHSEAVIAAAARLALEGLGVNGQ
Summary of the method: (§2)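 IC50 values reflect inhibitor concentrations halving the initial hydrolysis rate relative to uninhibited wells. Untagged recombinant enzymes were exposed to inhibitor at 37° C for 15 min before substrate addition: 100 μM nitrocefin for OXA-1 and p99 AmpC, imipenem for KPC-2, cefotaxime for SHV-5, each monitored spectrophotometrically for 10 min.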

OXA-1 β-lactamase = molecular target: T2, OXA-1 β-lactamase (Escherichia coli, UniProt P13661); assay: β-lactamase enzyme inhibition, OXA-1; type: biochemical; settings: Nitrocefin 100 μM, 486 nm; 15 min at 37° C. preincubation; read-out: IC50 OXA-1 (Class D)
T2 construct: made in house; host or cells: E. coli BL21(DE3)
T2 sequence (P13661 26-276): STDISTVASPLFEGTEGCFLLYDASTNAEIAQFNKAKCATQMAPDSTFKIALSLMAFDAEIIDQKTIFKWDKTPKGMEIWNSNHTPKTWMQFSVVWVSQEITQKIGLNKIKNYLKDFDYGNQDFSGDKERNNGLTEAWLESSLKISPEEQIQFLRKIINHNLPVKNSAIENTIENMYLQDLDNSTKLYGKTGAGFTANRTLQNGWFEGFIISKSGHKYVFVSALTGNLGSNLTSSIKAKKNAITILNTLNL
Summary of the method: as §2

[4] = tested on: K. pneumoniae 156319 expressing KPC-3; assay: broth microdilution MIC, K. pneumoniae KPC-3; type: cell-based; settings: Fixed Mero (meropenem) 4 μg/mL
Summary of the method: as §1

[5] = tested on: S. aureus MSSA-7 producing penicillinase PC-1; assay: broth microdilution MIC, S. aureus PC-1; type: cell-based; settings: Fixed Pip (piperacillin) 4 μg/mL
Summary of the method: as §1

[6] = molecular target: T3, VIM-2 metallo β-lactamase (Pseudomonas aeruginosa, UniProt Q9K2N0); assay: β-lactamase enzyme inhibition, VIM-2; type: biochemical; settings: Nitrocefin 100 μM, 486 nm; 15 min at 37° C. preincubation; read-out: IC50 VIM-2 (Class B)
T3 construct: made in house; host or cells: E. coli BL21(DE3)
Summary of the method: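 VIM-2 purified by Q sepharose anion exchange (50 mM Hepes pH 7.5, 0-600 mM NaCl gradient, two runs, >90% purity). Enzyme preincubated with inhibitor 15 min at 37° C; nitrocefin 100 μM final, absorbance at 486 nm followed 10 min. IC50 from initial hydrolysis rates versus inhibitor-free controls.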

p99 AmpC β-lactamase = molecular target: T4, p99 AmpC β-lactamase (Enterobacter cloacae, UniProt P05364); assay: β-lactamase enzyme inhibition, p99 AmpC; type: biochemical
T4 construct: made in house; host or cells: E. coli BL21(DE3)
T4 sequence (P05364 21-381): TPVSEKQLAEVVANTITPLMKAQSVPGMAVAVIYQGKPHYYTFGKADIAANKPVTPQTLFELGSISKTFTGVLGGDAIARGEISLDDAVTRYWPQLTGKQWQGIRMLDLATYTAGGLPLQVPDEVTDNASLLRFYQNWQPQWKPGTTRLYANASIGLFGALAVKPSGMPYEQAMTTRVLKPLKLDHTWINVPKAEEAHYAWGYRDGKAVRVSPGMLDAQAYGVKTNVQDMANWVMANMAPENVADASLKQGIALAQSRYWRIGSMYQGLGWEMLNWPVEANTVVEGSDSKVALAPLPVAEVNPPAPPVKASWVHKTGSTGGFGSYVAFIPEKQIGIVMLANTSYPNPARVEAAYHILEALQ
Summary of the method: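 Native untagged E. cloacae p99 AmpC was expressed in E. coli BL21(DE3) and purified by cation exchange and gel filtration. Enzyme was preincubated with inhibitor at 37°C for 15 min.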

[7] = tested on: P. aeruginosa Ps296 expressing VIM-2; assay: broth microdilution MIC, P. aeruginosa VIM-2; type: cell-based; settings: Fixed Mero (meropenem) 4 μg/mL
Summary of the method: as §1

SHV-5 β-lactamase = molecular target: T5, SHV-5 β-lactamase (Klebsiella pneumoniae, UniProt P0A3M1); assay: β-lactamase enzyme inhibition, SHV-5; type: biochemical
T5 construct: made in house; host or cells: E. coli BL21(DE3)
T5 sequence (P0A3M1 22-286): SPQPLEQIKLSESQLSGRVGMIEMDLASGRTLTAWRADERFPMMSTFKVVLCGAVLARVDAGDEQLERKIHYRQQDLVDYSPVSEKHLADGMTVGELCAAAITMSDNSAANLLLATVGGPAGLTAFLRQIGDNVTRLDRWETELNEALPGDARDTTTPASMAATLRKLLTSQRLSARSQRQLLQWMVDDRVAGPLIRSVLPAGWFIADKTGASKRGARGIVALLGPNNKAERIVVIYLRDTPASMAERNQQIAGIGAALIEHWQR
Summary of the method: as §2

[8] = imipenem substrate, 300 nm, 15 min at 37° C. preincubation, read-out: IC50 KPC-2 (Class A)

Compound | MIC of exemplary compounds in presence of fixed β-lactams, E. coli ESBL4 CTX-M-15 [1] | MIC of exemplary compounds in presence of fixed β-lactams, K.P. A-1797 KPC-2 VIM-4 [2] | MIC of exemplary compounds in presence of fixed β-lactams, E. cl. 144200 p99 AmpC [3] | IC50 (KPC-2 β-lactamase; [8]) | IC50 (OXA-1 β-lactamase) | MIC of exemplary compounds in presence of fixed β-lactams, K.P. 156319 KPC-3 [4] | MIC of exemplary compounds in presence of fixed β-lactams, S. aureus MSSA-7 PC-1 [5] | IC50 [6] | IC50 (p99 AmpC β-lactamase) | MIC of exemplary compounds in presence of fixed β-lactams, P. aerug. Ps296 VIM-2 [7] | IC50 (SHV-5 β-lactamase) | IC50 (KPC-2 β-lactamase)
CC(Cl)(Cl)C(=O)N[C@H]1Cc2cccc(C(=O)O)c2OB1O [Example 11, (R)-3-(2,2-Dichloro-propionylamino)-2-hydroxy-3,4-dihydro-2H-benzo[e][1,2]oxaborinine-8-carboxylic acid] | C (C represents the MIC in the presence of ≤4 g/mL of a β-lactamase inhibitor) | A (A represents an MIC of the fixed β-lactam antibiotic in the presence of >32 g/mL of a β-lactamase inhibitor) | C (C represents the MIC in the presence of ≤4 g/mL of a β-lactamase inhibitor) | < 100 nM | < 100 nM | C (C represents the MIC in the presence of ≤4 g/mL of a β-lactamase inhibitor) | C (C represents the MIC in the presence of ≤4 g/mL of a β-lactamase inhibitor) | 1000 to 10000 nM | < 100 nM | B (B represents the MIC in the presence of between 8 and 32 g/mL of a β-lactamase inhibitor) | < 100 nM | –
O=C(/C=C/Cl)N[C@H]1Cc2cccc(C(=O)O)c2OB1O [Example 12, (R)-3-(3-Chloro-acryloylamino)-2-hydroxy-3,4-dihydro-2H-benzo[e][1,2]oxaborinine-8-carboxylic acid] | C (C represents the MIC in the presence of ≤4 g/mL of a β-lactamase inhibitor) | A (A represents an MIC of the fixed β-lactam antibiotic in the presence of >32 g/mL of a β-lactamase inhibitor) | C (C represents the MIC in the presence of ≤4 g/mL of a β-lactamase inhibitor) | < 100 nM | < 100 nM | B (B represents the MIC in the presence of between 8 and 32 g/mL of a β-lactamase inhibitor) | C (C represents the MIC in the presence of ≤4 g/mL of a β-lactamase inhibitor) | 100 to 1000 nM | < 100 nM | B (B represents the MIC in the presence of between 8 and 32 g/mL of a β-lactamase inhibitor) | < 100 nM | –
CC(=O)CCCC(=O)N[C@H]1Cc2cccc(C(=O)O)c2OB1O [Example 13, (R)-2-Hydroxy-3-(5-oxo-hexanoylamino)-3,4-dihydro-2H-benzo[e][1,2]oxaborinine-8-carboxylic acid] | C (C represents the MIC in the presence of ≤4 g/mL of a β-lactamase inhibitor) | C (C represents the MIC in the presence of ≤4 g/mL of a β-lactamase inhibitor) | C (C represents the MIC in the presence of ≤4 g/mL of a β-lactamase inhibitor) | 100 to 1000 nM | < 100 nM | C (C represents the MIC in the presence of ≤4 g/mL of a β-lactamase inhibitor) | C (C represents the MIC in the presence of ≤4 g/mL of a β-lactamase inhibitor) | 100 to 1000 nM | < 100 nM | C (C represents the MIC in the presence of ≤4 g/mL of a β-lactamase inhibitor) | < 100 nM | –
N#CCCCC(=O)N[C@H]1Cc2cccc(C(=O)O)c2OB1O [Example 14, (R)-3-(4-Cyano-butyrylamino)-2-hydroxy-3,4-dihydro-2H-benzo[e][1,2]oxaborinine-8-carboxylic acid] | C (C represents the MIC in the presence of ≤4 g/mL of a β-lactamase inhibitor) | B (B represents the MIC in the presence of between 8 and 32 g/mL of a β-lactamase inhibitor) | C (C represents the MIC in the presence of ≤4 g/mL of a β-lactamase inhibitor) | < 100 nM | < 100 nM | C (C represents the MIC in the presence of ≤4 g/mL of a β-lactamase inhibitor) | C (C represents the MIC in the presence of ≤4 g/mL of a β-lactamase inhibitor) | 1000 to 10000 nM | < 100 nM | C (C represents the MIC in the presence of ≤4 g/mL of a β-lactamase inhibitor) | < 100 nM | –
CN(C)C(=O)CCC(=O)N[C@H]1Cc2cccc(C(=O)O)c2OB1O [Example 15, (R)-3-(3-Dimethylcarbamoyl-propionylamino)-2-hydroxy-3,4-dihydro-2H-benzo[e][1,2]oxaborinine-8-carboxylicacid] | C (C represents the MIC in the presence of ≤4 g/mL of a β-lactamase inhibitor) | A (A represents an MIC of the fixed β-lactam antibiotic in the presence of >32 g/mL of a β-lactamase inhibitor) | C (C represents the MIC in the presence of ≤4 g/mL of a β-lactamase inhibitor) | < 100 nM | < 100 nM | C (C represents the MIC in the presence of ≤4 g/mL of a β-lactamase inhibitor) | C (C represents the MIC in the presence of ≤4 g/mL of a β-lactamase inhibitor) | 10000 to 100000 nM | < 100 nM | B (B represents the MIC in the presence of between 8 and 32 g/mL of a β-lactamase inhibitor) | < 100 nM | –
NC(=O)CCC(=O)N[C@H]1Cc2cccc(C(=O)O)c2OB1O [Example 16, (R)-3-(3-Carbamoyl-propionylamino)-2-hydroxy-3,4-dihydro-2H-benzo[e][1,2]oxaborinine-8-carboxylic acid] | C (C represents the MIC in the presence of ≤4 g/mL of a β-lactamase inhibitor) | B (B represents the MIC in the presence of between 8 and 32 g/mL of a β-lactamase inhibitor) | C (C represents the MIC in the presence of ≤4 g/mL of a β-lactamase inhibitor) | – | < 100 nM | C (C represents the MIC in the presence of ≤4 g/mL of a β-lactamase inhibitor) | C (C represents the MIC in the presence of ≤4 g/mL of a β-lactamase inhibitor) | 100 to 1000 nM | < 100 nM | C (C represents the MIC in the presence of ≤4 g/mL of a β-lactamase inhibitor) | 100 to 1000 nM | < 100 nM
CC(CCC(=O)N[C@H]1Cc2cccc(C(=O)O)c2OB1O)=NO [Example 17, (R)-2-Hydroxy-3-(4-hydroxyimino-pentanoylamino)-3,4-dihydro-2H-benzo[e][1,2]oxaborinine-8-carboxylic acid] | C (C represents the MIC in the presence of ≤4 g/mL of a β-lactamase inhibitor) | B (B represents the MIC in the presence of between 8 and 32 g/mL of a β-lactamase inhibitor) | C (C represents the MIC in the presence of ≤4 g/mL of a β-lactamase inhibitor) | < 100 nM | < 100 nM | B (B represents the MIC in the presence of between 8 and 32 g/mL of a β-lactamase inhibitor) | C (C represents the MIC in the presence of ≤4 g/mL of a β-lactamase inhibitor) | 1000 to 10000 nM | < 100 nM | C (C represents the MIC in the presence of ≤4 g/mL of a β-lactamase inhibitor) | < 100 nM | –
